According to US20240358668A1, “METHODS AND CO[…] AM[…] CARD[…] USING (R)-2-AMINO-3-PH[…]” (AXSOME THERAPEUTICS, INC., priority 2021, published 2024):

Columns and labels:
[1] = tested on: participants with narcolepsy or OSA; test: 1-year OLE study: adverse events; format: in vivo, human
Method: A 1-year open-label extension (OLE) study was performed with 374 participants to examined whether clinically significant weight loss (≥5%) in this population had favorable effects on biomarkers of cardiovascular risk compared to no such weight loss. The study measured changes in weight and BP (parent study baseline to OLE week 40) and clinical laboratory assessments (OLE baseline to week 40) in participants with narcolepsy (n=124) or OSA (n=250) who received solriamfetol at doses of 75, 150, or 300 mg/d.
Of 374 participants, 96 (25.7%) had ≥5% weight loss; among those without ≥5% weight loss (n=278), 34 (9.1% of total population) had ≥5% weight gain. Demographics were similar in those with and without weight loss (see Table 1 (demographics and baseline characteristics) and Table 2 (additional demographics and baseline characteristics)). […] Participants with weight loss had mean±SD reductions in SBP (−2.6±11.4 mmHg) and DBP (−1.0±9.0 mmHg), whereas participants without weight loss had increases of +0.65±12.5 mmHg and +1.2±8.7 mmHg, respectively (see Table 3 (blood pressure at baseline and week 40), Table 4 (systolic blood pressure (SBP) maximum changes from baseline to week 40), and Table 5 (diastolic blood pressure (DBP) maximum changes from baseline to week 40)). Adverse events are shown in Table 11 (adverse events in ≥5% of Combined Solriamfetol Participants).

[2] = tested on: participants with OSA; test: Study 14-003, 12-week randomized controlled trial: 24-hour ABPM at screening and week 8; format: in vivo, human; conditions: for effect on percentage of participants with a non-dipping BP profile: screening to week 8, any dose studied
Method: Solriamfetol is a dopamine and norepinephrine reuptake inhibitor indicated to improve wakefulness in adult patients with excessive daytime sleepiness associated with obstructive sleep apnea (OSA; 37.5-150 mg/d) or narcolepsy (75-150 mg/d). Previous studies reported small mean increases in blood pressure (BP); however, the time course of these effects has not been evaluated. […] These analyses evaluated the effects of solriamfetol treatment on BP using 24-hour ambulatory blood pressure monitoring (ABPM) and on the percentage of OSA patients with a non-dipping BP profile.
Twenty-four-hour ABPM was conducted at baseline and week 8 in a 12-week randomized controlled trial in participants with OSA (n=474). Blood pressure was collected every 30 minutes.

[3] = Weight loss <5% at Week 40, 75 mg/d
[4] = Weight loss <5% at Week 40, 150 mg/d
[5] = Weight loss <5% at Week 40, 300 mg/d
[6] = Weight loss <5% at Week 40, all doses
[7] = Weight loss ≥5% at Week 40, 75 mg/d
[8] = Weight loss ≥5% at Week 40, 150 mg/d
[9] = Weight loss ≥5% at Week 40, 300 mg/d
[10] = Weight loss ≥5% at Week 40, all doses
[11] = 37.5 mg, listed as solriamfetol

With `NC(=O)OC[C@H](N)Cc1ccccc1` [Solriamfetol, (R)-2-amino-3-phenylpropyl carbamate] the “AE of interest: Decreased appetite” value [1, 3] was 1(4.8) n(%), the “Common AEs: Anxiety” value [1, 3] was 0 n(%) and the “Common AEs: Dizziness” value [1, 3] was 2(9.5) n(%). The “Common AEs: Dry mouth” value [1, 3] was 2(9.5) n(%), the “Common AEs: Feeling jittery” value [1, 3] was 2(9.5) n(%) and the “Common AEs: Headache” value [1, 3] was 3(14.3) n(%). For the same molecule, the “Common AEs: Influenza” value [1, 3] was 0 n(%), the “Common AEs: Insomnia” value [1, 3] was 4(19.0) n(%) and the “Common AEs: Nasopharyngitis” value [1, 3] was 3(14.3) n(%). The “Common AEs: Nausea” value [1, 3] was 0 n(%), the “Common AEs: Sinusitis” value [1, 3] was 1(4.8) n(%) and the “Common AEs: URTI (Upper Respiratory Tract Infection)” value [1, 3] was 0 n(%). The “AE of interest: Decreased appetite” value [1, 4] was 5(4.8) n(%), the “Common AEs: Anxiety” value [1, 4] was 10(9.5) n(%) and the “Common AEs: Dizziness” value [1, 4] was 2(1.9) n(%). The “Common AEs: Dry mouth” value [1, 4] was 6(5.7) n(%), the “Common AEs: Feeling jittery” value [1, 4] was 7(6.7) n(%) and the “Common AEs: Headache” value [1, 4] was 9(8.6) n(%). For the same molecule, the “Common AEs: Influenza” value [1, 4] was 3(2.9) n(%), the “Common AEs: Insomnia” value [1, 4] was 14(13.3) n(%) and the “Common AEs: Nasopharyngitis” value [1, 4] was 14(13.3) n(%). The “Common AEs: Nausea” value [1, 4] was 12(11.4) n(%), the “Common AEs: Sinusitis” value [1, 4] was 2(1.9) n(%) and the “Common AEs: URTI (Upper Respiratory Tract Infection)” value [1, 4] was 6(5.7) n(%). The “AE of interest: Decreased appetite” value [1, 5] was 6(3.9) n(%), the “Common AEs: Anxiety” value [1, 5] was 2(1.3) n(%) and the “Common AEs: Dizziness” value [1, 5] was 4(2.6) n(%). The “Common AEs: Dry mouth” value [1, 5] was 5(3.3) n(%), the “Common AEs: Feeling jittery” value [1, 5] was 7(4.6) n(%) and the “Common AEs: Headache” value [1, 5] was 15(9.9) n(%). For the same molecule, the “Common AEs: Influenza” value [1, 5] was 2(1.3) n(%), the “Common AEs: Insomnia” value [1, 5] was 3 (2.0) n(%) and the “Common AEs: Nasopharyngitis” value [1, 5] was 15(9.9) n(%). The “Common AEs: Nausea” value [1, 5] was 8 (5.3) n(%), the “Common AEs: Sinusitis” value [1, 5] was 11(7.2) n(%) and the “Common AEs: URTI (Upper Respiratory Tract Infection)” value [1, 5] was 14(9.2) n(%). The “AE of interest: Decreased appetite” value [1, 6] was 12(4.3) n(%), the “Common AEs: Anxiety” value [1, 6] was 12(4.3) n(%) and the “Common AEs: Dizziness” value [1, 6] was 8(2.9) n(%). The “Common AEs: Dry mouth” value [1, 6] was 13(4.7) n(%), the “Common AEs: Feeling jittery” value [1, 6] was 16(5.8) n(%) and the “Common AEs: Headache” value [1, 6] was 27(9.7) n(%). For the same molecule, the “Common AEs: Influenza” value [1, 6] was 5(1.8) n(%), the “Common AEs: Insomnia” value [1, 6] was 21(7.6) n(%) and the “Common AEs: Nasopharyngitis” value [1, 6] was 32(11.5) n(%). For the same molecule, the “Common AEs: Nausea” value [1, 6] was 20(7.2) n(%), the “Common AEs: Sinusitis” value [1, 6] was 14(5.0) n(%) and the “Common AEs: URTI (Upper Respiratory Tract Infection)” value [1, 6] was 20(7.2) n(%). The “AE of interest: Decreased appetite” value [1, 7] was 0 n(%), the “Common AEs: Anxiety” value [1, 7] was 0 n(%) and the “Common AEs: Dizziness” value [1, 7] was 0 n(%). For the same molecule, the “Common AEs: Dry mouth” value [1, 7] was 1(100) n(%), the “Common AEs: Feeling jittery” value [1, 7] was 0 n(%) and the “Common AEs: Headache” value [1, 7] was 0 n(%). For the same molecule, the “Common AEs: Influenza” value [1, 7] was 0 n(%), the “Common AEs: Insomnia” value [1, 7] was 0 n(%) and the “Common AEs: Nasopharyngitis” value [1, 7] was 0 n(%). The “Common AEs: Nausea” value [1, 7] was 0 n(%), the “Common AEs: Sinusitis” value [1, 7] was 0 n(%) and the “Common AEs: URTI (Upper Respiratory Tract Infection)” value [1, 7] was 0 n(%). For the same molecule, the “AE of interest: Decreased appetite” value [1, 8] was 0 n(%), the “Common AEs: Anxiety” value [1, 8] was 3(13.6) n(%) and the “Common AEs: Dizziness” value [1, 8] was 2(9.1) n(%). For the same molecule, the “Common AEs: Dry mouth” value [1, 8] was 1(4.5) n(%), the “Common AEs: Feeling jittery” value [1, 8] was 2(9.1) n(%) and the “Common AEs: Headache” value [1, 8] was 5(22.7) n(%). The “Common AEs: Influenza” value [1, 8] was 1(4.5) n(%), the “Common AEs: Insomnia” value [1, 8] was 2(9.1) n(%) and the “Common AEs: Nasopharyngitis” value [1, 8] was 0 n(%). The “Common AEs: Nausea” value [1, 8] was 4(18.2) n(%), the “Common AEs: Sinusitis” value [1, 8] was 3(13.6) n(%) and the “Common AEs: URTI (Upper Respiratory Tract Infection)” value [1, 8] was 1(4.5) n(%). For the same molecule, the “AE of interest: Decreased appetite” value [1, 9] was 2(2.7) n(%), the “Common AEs: Anxiety” value [1, 9] was 3(4.1) n(%) and the “Common AEs: Dizziness” value [1, 9] was 3(4.1) n(%). For the same molecule, the “Common AEs: Dry mouth” value [1, 9] was 7(9.6) n(%), the “Common AEs: Feeling jittery” value [1, 9] was 1(1.4) n(%) and the “Common AEs: Headache” value [1, 9] was 7(9.6) n(%). For the same molecule, the “Common AEs: Influenza” value [1, 9] was 5(6.8) n(%), the “Common AEs: Insomnia” value [1, 9] was 5(6.8) n(%) and the “Common AEs: Nasopharyngitis” value [1, 9] was 8(11.0) n(%). For the same molecule, the “Common AEs: Nausea” value [1, 9] was 3(4.1) n(%), the “Common AEs: Sinusitis” value [1, 9] was 3(4.1) n(%) and the “Common AEs: URTI (Upper Respiratory Tract Infection)” value [1, 9] was 3(4.1) n(%). The “AE of interest: Decreased appetite” value [1, 10] was 2(2.1) n(%), the “Common AEs: Anxiety” value [1, 10] was 6(6.3) n(%) and the “Common AEs: Dizziness” value [1, 10] was 5(5.2) n(%). The “Common AEs: Dry mouth” value [1, 10] was 9(9.4) n(%), the “Common AEs: Feeling jittery” value [1, 10] was 3(3.1) n(%) and the “Common AEs: Headache” value [1, 10] was 12(12.5) n(%). The “Common AEs: Influenza” value [1, 10] was 6(6.3) n(%), the “Common AEs: Insomnia” value [1, 10] was 7(7.3) n(%) and the “Common AEs: Nasopharyngitis” value [1, 10] was 8(8.3) n(%). The “Common AEs: Nausea” value [1, 10] was 7(7.3) n(%), the “Common AEs: Sinusitis” value [1, 10] was 6(6.3) n(%) and the “Common AEs: URTI (Upper Respiratory Tract Infection)” value [1, 10] was 4(4.2) n(%). The “Mean Change in DBP on ABPM from Screening to Week 8, Mean (SD)” value (from here on “Mean Change in DBP on ABPM … (SD)”) ([2]; 37.5 mg) was 0.8 (6.09) mmHg, the “Mean Change in HR on ABPM from Screening to Week 8, Mean (SD)” value (from here on “Mean Change in HR on ABPM … (SD)”) ([2]; 37.5 mg) was 0.7 (5.57) bpm and the “Mean Change in SBP on ABPM from Screening to Week 8, Mean (SD)” value (“Mean Change in SBP on ABPM … (SD)” for short) ([2]; 37.5 mg) was 0.7 (10.19) mmHg. The “Mean Change in DBP on ABPM … (SD)” value [2, 11] was 0.8 mmHg, the “Mean Change in SBP on ABPM … (SD)” value [2, 11] was 0.7 mmHg and the “Mean Change in DBP on ABPM … (SD)” value ([2]; 75 mg) was 0.7 (6.55) mmHg. For the same molecule, the “Mean Change in HR on ABPM … (SD)” value ([2]; 75 mg) was 0.4 (7.70) bpm, the “Mean Change in SBP on ABPM … (SD)” value ([2]; 75 mg) was 2.2 (9.82) mmHg and the “Mean Change in DBP on ABPM … (SD)” value ([2]; 75 mg, listed as solriamfetol) was 0.7 mmHg. For the same molecule, the “Mean Change in SBP on ABPM … (SD)” value ([2]; 75 mg, listed as solriamfetol) was 2.2 mmHg, the “Mean Change in DBP on ABPM … (SD)” value ([2]; 150 mg) was −0.2 (5.10) mmHg and the “Mean Change in HR on ABPM … (SD)” value ([2]; 150 mg) was 1.5 (6.53) bpm. The “Mean Change in SBP on ABPM … (SD)” value ([2]; 150 mg) was −0.5 (8.64) mmHg, the “Mean Change in DBP on ABPM … (SD)” value ([2]; 150 mg, listed as solriamfetol) was −0.2 mmHg and the “Mean Change in SBP on ABPM … (SD)” value ([2]; 150 mg, listed as solriamfetol) was −0.5 mmHg. For the same molecule, the “Mean Change in DBP on ABPM … (SD)” value ([2]; 300 mg) was 2.5 (8.66) mmHg, the “Mean Change in HR on ABPM … (SD)” value ([2]; 300 mg) was 1.9 (5.56) bpm and the “Mean Change in SBP on ABPM … (SD)” value ([2]; 300 mg) was 2.9 (13.41) mmHg. For the same molecule, the “Mean Change in DBP on ABPM … (SD)” value ([2]; 300 mg, listed as solriamfetol) was 2.5 mmHg, the “Mean Change in SBP on ABPM … (SD)” value ([2]; 300 mg, listed as solriamfetol) was 2.9 mmHg and the “percentage of non-dippers (<10% decrease in MAP during sleep)” value ([2]; combined solriamfetol, week 8 (baseline 55%)) was 53%. The “time course of effects on BP (24-hour ABPM)” value ([2]; highest approved dose of 150 mg/d) was “transient across the day”, the “effect on percentage of participants with a non-dipping BP profile” value [2] was “not observed to have an increase” and the “effect on percentage of participants with a non-dipping BP profile” value ([2]; listed as solriamfetol) was “did not increase”.
